Where “and” joins values, the source holds several entries; their conditions need not be identical. Equal entries are not always repeated. Toxic doses and inconclusive results are not listed.
System: BDF1 mice, B16 melanoma ip, median survival T/C
Assay: NCI In Vivo Anticancer Drug Screen. Data for tumor model B16 Melanoma (intraperitoneal) in B6D2F1 (BDF1) mice
Conditions: endpoint: median survival time, higher = longer survival
How it was run: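 Antitumor activity is assessed in mice bearing a transplanted tumor, with survival or tumor size compared against vehicle-dosed controls and expressed as T/C.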

[1] = dose: 100.0 mg/kg/injection, schedule: Q01DX009 (ip), vehicle: Klucel (hydroxypropylcellulose) (HPC)
[2] = dose: 200.0 mg/kg/injection, schedule: Q01DX009 (ip), vehicle: Klucel (hydroxypropylcellulose) (HPC)
[3] = dose: 400.0 mg/kg/injection, schedule: Q01DX009 (ip), vehicle: Klucel (hydroxypropylcellulose) (HPC)
[4] = dose: 12.5 mg/kg/injection, schedule: Q01DX009 (ip), vehicle: Klucel (hydroxypropylcellulose) (HPC)
[5] = dose: 25.0 mg/kg/injection, schedule: Q01DX009 (ip), vehicle: Klucel (hydroxypropylcellulose) (HPC)
[6] = dose: 50.0 mg/kg/injection, schedule: Q01DX009 (ip), vehicle: Klucel (hydroxypropylcellulose) (HPC)
[7] = dose: 200.0 mg/kg/injection, schedule: Q04DX003 (ip), vehicle: Klucel (hydroxypropylcellulose) (HPC)
[8] = dose: 400.0 mg/kg/injection, schedule: Q04DX003 (ip), vehicle: Klucel (hydroxypropylcellulose) (HPC)
[9] = dose: 100.0 mg/kg/injection, schedule: Q04DX003 (ip), vehicle: Klucel (hydroxypropylcellulose) (HPC)
[10] = dose: 6.25 mg/kg/injection, schedule: Q01DX009 (ip), vehicle: Klucel (hydroxypropylcellulose) (HPC)

Structure (SMILES): COc1cc2c3cc1Oc1c(O)c(OC)cc4c1[C@H](Cc1ccc(cc1)Oc1cc(ccc1O)C[C@H]3N(C)CC2)N(C)CC4
- T/C (dose: 10.0 mg/kg/injection, schedule: Q01DX009 (ip), vehicle: water): 108 % of control
- T/C (dose: 20.0 mg/kg/injection, schedule: Q01DX009 (ip), vehicle: water): 114 % of control
- T/C (dose: 40.0 mg/kg/injection, schedule: Q01DX009 (ip), vehicle: water): 102 % of control and 113 % of control
- T/C (dose: 50.0 mg/kg/injection, schedule: Q01DX009 (ip), vehicle: saline with Tween-80): 118 % of control
- T/C (dose: 75.0 mg/kg/injection, schedule: Q01DX009 (ip), vehicle: saline with Tween-80): 112 % of control
- T/C (dose: 80.0 mg/kg/injection, schedule: Q01DX009 (ip), vehicle: water): 88 % of control and 114 % of control
- T/C (dose: 100.0 mg/kg/injection, schedule: Q01DX009 (ip), vehicle: saline with Tween-80): 118 % of control
- T/C (dose: 150.0 mg/kg/injection, schedule: Q01DX009 (ip), vehicle: saline with Tween-80): 119 % of control

Structure (SMILES): CCOc1ccc(/C=N/NS(=O)(=O)c2ccc(C)cc2)cc1
- T/C [1]: 96 % of control
- T/C [2]: 90 % of control
- T/C [3]: 90 % of control

Structure (SMILES): O=c1[nH]c(=S)[nH]cc1Oc1ccc(I)cc1
- T/C [4]: 90 % of control
- T/C [5]: 86 % of control
- T/C [6]: 91 % of control

Structure (SMILES): CC1C2Cc3ccc(O)cc3C1(C)CCN2CC1CC1 (stereo not given)
- T/C [5]: 100 % of control
- T/C [6]: 94 % of control
- T/C [1]: 95 % of control

Structure (SMILES): CCOC(=O)C(O)C(C#N)c1ccccc1 (stereo not given)
- T/C (dose: 100.0 mg/kg/injection, schedule: Q01DX009 (ip), vehicle: other): 98 % of control
- T/C (dose: 200.0 mg/kg/injection, schedule: Q01DX009 (ip), vehicle: other): 99 % of control
- T/C (dose: 400.0 mg/kg/injection, schedule: Q01DX009 (ip), vehicle: other): 107 % of control

Structure (SMILES): CN(C)c1ccc(C(=C2C=CC(=[N+](C)C)C=C2)c2ccc(N(C)C)cc2)cc1 (tested in a mixture with another compound)
- T/C (dose: 0.31 mg/kg/injection, schedule: Q01DX009 (ip), vehicle: saline with Tween-80): 123 % of control
- T/C (dose: 0.62 mg/kg/injection, schedule: Q01DX009 (ip), vehicle: saline with Tween-80): 109 % of control
- T/C (dose: 1.25 mg/kg/injection, schedule: Q01DX009 (ip), vehicle: saline with Tween-80): 104 % of control
- T/C (dose: 2.5 mg/kg/injection, schedule: Q01DX009 (ip), vehicle: saline with Tween-80): 116 % of control

Structure (SMILES): COc1cccc2c1CCC1=C2CC=C2CC3(CCC21C)OCCO3 (stereo not given)
- T/C (dose: 100.0 mg/kg/injection, schedule: Q04DX003 (sc), vehicle: steriod suspending solution): 104 % of control
- T/C (dose: 200.0 mg/kg/injection, schedule: Q04DX003 (sc), vehicle: steriod suspending solution): 86 % of control
- T/C (dose: 400.0 mg/kg/injection, schedule: Q04DX003 (sc), vehicle: steriod suspending solution): 97 % of control

Structure (SMILES): Nc1nc(=S)c2ncn(C3OC(CO)C(O)C3O)c2[nH]1 (stereo not given)
- T/C (dose: 0.5 mg/kg/injection, schedule: Q01DX009 (ip), vehicle: saline with Tween-80): 109 % of control
- T/C (dose: 1.0 mg/kg/injection, schedule: Q01DX009 (ip), vehicle: saline sonified): 106 % of control
- T/C (dose: 1.0 mg/kg/injection, schedule: Q01DX009 (ip), vehicle: saline with Tween-80): 122 % of control
- T/C (dose: 2.0 mg/kg/injection, schedule: Q01DX009 (ip), vehicle: saline sonified): 102 % of control
- T/C (dose: 2.0 mg/kg/injection, schedule: Q01DX009 (ip), vehicle: saline with Tween-80): 113 % of control

Structure (SMILES): O=CNC(c1ccccc1)(c1ccccc1)c1ccccc1
- T/C [1]: 97 % of control
- T/C [2]: 94 % of control
- T/C [3]: 94 % of control

Structure (SMILES): Cc1c(N)nc([C@H](CC(N)=O)NC[C@H](N)C(N)=O)nc1C(=O)N[C@H](C(=O)N[C@H](C)[C@@H](O)[C@H](C)C(=O)N[C@H](C(=O)NCCc1nc(-c2nc(C(=O)NCCC[S+](C)C)cs2)cs1)[C@@H](C)O)C(OC1OC(CO)C(O)C(O)C1OC1OC(CO)C(O)C(OC(N)=O)C1O)c1cnc[nH]1 (stereo not given in full)
- T/C (dose: 1.0 mg/kg/injection, schedule: Q01DX009 (ip), vehicle: clinical formulation): 114 % of control
- T/C (dose: 2.0 mg/kg/injection, schedule: Q01DX009 (ip), vehicle: clinical formulation): 121 % of control
- T/C (dose: 3.9 mg/kg/injection, schedule: Q01DX009 (ip), vehicle: saline): 102 % of control
- T/C (dose: 4.0 mg/kg/injection, schedule: Q01DX009 (ip), vehicle: clinical formulation): 120 % of control
- T/C (dose: 7.8 mg/kg/injection, schedule: Q01DX009 (ip), vehicle: saline): 102 % of control
- T/C (dose: 8.0 mg/kg/injection, schedule: Q01DX009 (ip), vehicle: clinical formulation): 124 % of control
- T/C (dose: 15.6 mg/kg/injection, schedule: Q01DX009 (ip), vehicle: saline): 102 % of control
- T/C (dose: 16.0 mg/kg/injection, schedule: Q01DX009 (ip), vehicle: clinical formulation): 123 % of control
- T/C (dose: 31.3 mg/kg/injection, schedule: Q01DX009 (ip), vehicle: saline): 109 % of control

Structure (SMILES): C[n+]1cccc(NC(=O)c2ccc(NC(=O)C34CCC(C(=O)Nc5ccc(C(=O)Nc6ccc[n+](C)c6)cc5)(CC3)CC4)cc2)c1
- T/C (dose: 10.0 mg/kg/injection, schedule: Q01DX009 (ip), vehicle: saline with Tween-80): 154 % of control

Structure (SMILES): CCOC(=O)C(Cc1ccc(O)cc1)NP(=O)(OCCCl)OCCCl (stereo not given)
- T/C [7]: 86 % of control
- T/C [8]: 91 % of control

Structure (SMILES): O=C(/C=C(\C(=O)c1ccccc1)c1ccccc1)c1ccccc1
- T/C [9]: 100 % of control
- T/C [7]: 100 % of control
- T/C [8]: 103 % of control

Structure (SMILES): CC(C)(C[NH-])C[NH-].[Cl][Pt+2][Cl]
- T/C (dose: 0.5 mg/kg/injection, schedule: Q04DX003 (ip), vehicle: water): 164 % of control
- T/C (dose: 1.0 mg/kg/injection, schedule: Q04DX003 (ip), vehicle: water): 165 % of control and 183 % of control
- T/C (dose: 2.0 mg/kg/injection, schedule: Q04DX003 (ip), vehicle: water): 161 % of control and 201 % of control
- T/C (dose: 4.0 mg/kg/injection, schedule: Q04DX003 (ip), vehicle: water): 213 % of control

Structure (SMILES): CC(C)(C)C1CC(C(F)(F)F)(C(F)(F)F)OS(=O)O1 (stereo not given)
- T/C (dose: 1.56 mg/kg/injection, schedule: Q04DX003 (ip), vehicle: saline): 102 % of control
- T/C (dose: 3.13 mg/kg/injection, schedule: Q04DX003 (ip), vehicle: saline): 115 % of control
- T/C (dose: 6.25 mg/kg/injection, schedule: Q04DX003 (ip), vehicle: saline): 105 % of control

Structure (SMILES): O=C(CBr)CC(O)(C(F)(F)F)C(F)(F)F
- T/C (dose: 0.75 mg/kg/injection, schedule: Q01DX009 (ip), vehicle: saline): 100 % of control
- T/C (dose: 0.75 mg/kg/injection, schedule: Q04DX003 (ip), vehicle: saline): 97 % of control
- T/C (dose: 1.5 mg/kg/injection, schedule: Q01DX009 (ip), vehicle: saline): 105 % of control
- T/C (dose: 1.5 mg/kg/injection, schedule: Q04DX003 (ip), vehicle: saline): 100 % of control
- T/C (dose: 3.0 mg/kg/injection, schedule: Q01DX009 (ip), vehicle: saline): 94 % of control
- T/C (dose: 3.0 mg/kg/injection, schedule: Q04DX003 (ip), vehicle: saline): 100 % of control and 105 % of control

Structure (SMILES): COc1cc(C(=O)c2cc3c(cc2C)OCO3)cc(OC)c1OC
- T/C [10]: 105 % of control
- T/C [4]: 97 % of control and 115 % of control
- T/C [5]: 98 % of control and 103 % of control
- T/C [6]: 101 % of control and 112 % of control
- T/C [1]: 109 % of control
- T/C [2]: 104 % of control

Structure (SMILES): CCc1ccc(C2=C(O)C(=O)C(c3ccc(CC)cc3)=C(O)C2=O)cc1
- T/C (dose: 3.12 mg/kg/injection, schedule: Q01DX009 (ip), vehicle: saline with Tween-80): 114 % of control
- T/C (dose: 6.25 mg/kg/injection, schedule: Q01DX009 (ip), vehicle: saline with Tween-80): 103 % of control
- T/C (dose: 12.5 mg/kg/injection, schedule: Q01DX009 (ip), vehicle: saline with Tween-80): 113 % of control and 119 % of control
- T/C (dose: 25.0 mg/kg/injection, schedule: Q01DX009 (ip), vehicle: saline with Tween-80): 112 % of control and 122 % of control

Structure (SMILES): CC1(C)CCSC(/C=C/c2ccccc2)=N1
- T/C [6]: 96 % of control
- T/C [1]: 94 % of control
- T/C [2]: 91 % of control

Structure (SMILES): Nc1ccc(-c2ccc3ccccc3n2)cc1
- T/C [10]: 111 % of control
- T/C [4]: 104 % of control
- T/C [5]: 91 % of control

Structure (SMILES): CCOC(=O)C(C)Oc1ccccc1[N+](=O)[O-] (stereo not given)
- T/C [1]: 103 % of control
- T/C [2]: 96 % of control
- T/C [3]: 103 % of control

Structure (SMILES): CCOC(=O)NC(C)(C)CN(CCCO)C(=O)OCC
- T/C [9]: 100 % of control
- T/C [7]: 100 % of control
- T/C [8]: 97 % of control

Source: PubChem BioAssay AID192 (DTP/NCI, 2004)
